In patent EP2334184B1, “FUNGICIDAL MIXTURE, CONTAINING FENPROPIDIN AND PENCONAZOLE” (Syngenta Participations AG, priority 2008, dated 2010):

Key:
rose varieties [1] = test: Crop safety trials in Holland during the winter / dark season; format: in vivo
Method: The following trials were conducted in Holland during the winter period / dark season, when the total light radiation level is less than 2000 W/m^2 per day.
(§1) These treatments were applied to 8 different rose varieties, and phytotoxicity assessments made at 7 day intervals. A phytotoxicity score of greater than 2.0% indicates unacceptable phytotoxicity; a score of 1.0 to 2.0% is acceptable (but not ideal); a score of less than 1.0% is good.

rose varieties [2] = test: Crop safety trials in Holland in April (summer trials); format: in vivo; details: Cv. Red Naomi
Method: as §1
Corresponding trials were conducted using selected treatments from table 9 above, in Holland in April, when the total light radiation level is above 2000 W/m^2 per day.

[3] = Cv. Grand Prix, 7DAA1 (7 days after first application)
[4] = Cv. Grand Prix, <2000 W/m^2 per day, 0DAA0

Row | SMILES | Percentage phytotoxicity (%) (rose varieties [1]; [3]) | Percentage phytotoxicity (%) (rose varieties [1]; Cv. Grand Prix, 7DAA2) | Percentage phytotoxicity (%) (rose varieties [1]; Cv. Grand Prix, 7DAA3) | Percentage phytotoxicity (%) (rose varieties [1]; Cv. Grand Prix, 14DAA3) | Percentage phytotoxicity (%) (rose varieties [1]; Cv. Grand Prix, 21DAA3) | Percentage phytotoxicity (%) (rose varieties [1]; [4]) | Percentage phytotoxicity (%) (rose varieties [1]; Cv. Red Naomi, 0DAA0) | Percentage phytotoxicity (%) (rose varieties [1]; Cv. Red Naomi, 6DAA2) | Percentage phytotoxicity (%) (rose varieties [1]; Cv. Red Naomi, 7DAA1) | Percentage phytotoxicity (%) (rose varieties [1]; Cv. Red Naomi, 7DAA3) | Percentage phytotoxicity (%) (rose varieties [1]; Cv. Red Naomi, 18DAA3) | Percentage phytotoxicity (%) (rose varieties [2]; 7DAA1) | Percentage phytotoxicity (%) (rose varieties [2]; 7DAA2) | Percentage phytotoxicity (%) (rose varieties [2]; 7DAA3) | Percentage phytotoxicity (%) (rose varieties [2]; 14DAA3) | Percentage phytotoxicity (%) (rose varieties [2]; >2000 W/m^2 per day, 0DAA0)
1 | CCCC(Cn1cncn1)c1ccc(Cl)cc1Cl (stereo not drawn) [Treatment 8] | 0.0 | 0.0 | 1.3 | 0.0 | 0.0 | 0.0 | 0.0 | 0.7 | 1.3 | 0.7 | 0.0 | 0.0 | 0.0 | 0.0 | 0.0 | 0.0
2 | CCCC(Cn1cncn1)c1ccc(Cl)cc1Cl (stereo not drawn) [Treatment 9] | 0.0 | 0.0 | 4.0 | 2.0 | 0.3 | 0.0 | 0.0 | 1.7 | 2.7 | 3.0 | 0.7 | – | – | – | – | –
